{
  "source": "the kinase profiling compilation of Christmann-Franck et al. (2016)",
  "assay_in_all_cases": "radiometric filter-binding kinase assay, Kinase HotSpot",
  "details_in_all_cases": "compound 0.5 µM; ATP 10 µM",
  "key": {"STK25 (human)": {"target": "STK25 (human) (UniProt O00506)"}, "CAMKK2 (human)": {"target": "CAMKK2 (human) (UniProt Q96RR4)"}, "STK39 (human)": {"target": "STK39 (human) (UniProt Q9UEW8)"}, "MARK1 (human)": {"target": "MARK1 (human) (UniProt Q9P0L2)"}, "FYN (human)": {"target": "FYN (human) (UniProt P06241)"}, "ROCK1 (human)": {"target": "ROCK1 (human) (UniProt Q13464)"}, "NEK7 (human)": {"target": "NEK7 (human) (UniProt Q8TDX7)", "sequence (Q8TDX7 whole entry, looked up)": "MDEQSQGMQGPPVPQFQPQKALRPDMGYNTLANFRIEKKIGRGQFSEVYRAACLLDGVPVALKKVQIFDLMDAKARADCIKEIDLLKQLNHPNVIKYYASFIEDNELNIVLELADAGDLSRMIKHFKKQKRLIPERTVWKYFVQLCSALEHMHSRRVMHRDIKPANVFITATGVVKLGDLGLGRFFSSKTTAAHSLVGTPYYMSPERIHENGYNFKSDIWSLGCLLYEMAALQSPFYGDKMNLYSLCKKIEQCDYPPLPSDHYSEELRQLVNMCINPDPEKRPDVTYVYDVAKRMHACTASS"}, "GSK3A (human)": {"target": "GSK3A (human) (UniProt P49840)"}, "MAPKAPK5 (human)": {"target": "MAPKAPK5 (human) (UniProt Q8IW41)"}, "MAPK1 (human)": {"target": "MAPK1 (human) (UniProt P28482)"}, "MAPKAPK3 (human)": {"target": "MAPKAPK3 (human) (UniProt Q16644)"}, "EPHA5 (human)": {"target": "EPHA5 (human) (UniProt P54756)", "sequence (P54756 whole entry, looked up)": "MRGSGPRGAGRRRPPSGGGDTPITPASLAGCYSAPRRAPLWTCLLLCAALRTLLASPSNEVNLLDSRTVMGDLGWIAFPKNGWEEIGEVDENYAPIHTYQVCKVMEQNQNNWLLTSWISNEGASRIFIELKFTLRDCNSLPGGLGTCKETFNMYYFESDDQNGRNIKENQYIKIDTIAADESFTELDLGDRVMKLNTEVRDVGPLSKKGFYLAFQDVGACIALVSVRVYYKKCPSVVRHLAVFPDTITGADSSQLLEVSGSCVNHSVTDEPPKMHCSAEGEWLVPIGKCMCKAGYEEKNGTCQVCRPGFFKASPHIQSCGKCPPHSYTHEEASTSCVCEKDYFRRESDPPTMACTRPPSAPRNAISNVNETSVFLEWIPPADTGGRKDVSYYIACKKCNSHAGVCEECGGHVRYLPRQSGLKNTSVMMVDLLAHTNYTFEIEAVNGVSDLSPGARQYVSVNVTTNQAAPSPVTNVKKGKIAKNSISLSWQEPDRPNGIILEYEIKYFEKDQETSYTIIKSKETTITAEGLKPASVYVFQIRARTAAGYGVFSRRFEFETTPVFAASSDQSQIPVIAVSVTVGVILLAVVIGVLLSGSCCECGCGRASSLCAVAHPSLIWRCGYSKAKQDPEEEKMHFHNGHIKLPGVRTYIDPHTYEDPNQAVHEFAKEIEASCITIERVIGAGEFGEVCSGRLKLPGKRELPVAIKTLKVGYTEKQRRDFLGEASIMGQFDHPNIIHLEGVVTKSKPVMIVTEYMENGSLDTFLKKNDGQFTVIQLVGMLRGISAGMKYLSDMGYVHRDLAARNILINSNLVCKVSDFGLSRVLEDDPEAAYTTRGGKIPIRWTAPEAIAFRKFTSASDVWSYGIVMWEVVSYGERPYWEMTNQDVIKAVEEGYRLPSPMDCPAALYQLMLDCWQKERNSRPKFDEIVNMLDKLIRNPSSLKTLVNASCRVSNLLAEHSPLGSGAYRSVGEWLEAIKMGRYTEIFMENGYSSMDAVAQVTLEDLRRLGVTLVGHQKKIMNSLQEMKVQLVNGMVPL"}, "STK3 (human)": {"target": "STK3 (human) (UniProt Q13188)"}, "PDGFRA (human)": {"target": "PDGFRA (human) (UniProt P16234)"}, "RPS6KA4 KD2 (human)": {"target": "RPS6KA4 KD2 (human) (UniProt O75676)"}, "EPHA7 (human)": {"target": "EPHA7 (human) (UniProt Q15375)"}, "CAMKK1 (human)": {"target": "CAMKK1 (human) (UniProt Q8N5S9)"}, "AURKA (human)": {"target": "AURKA (human) (UniProt O14965)"}, "MST1R (human)": {"target": "MST1R (human) (UniProt Q04912)"}, "MAP3K2 (human)": {"target": "MAP3K2 (human) (UniProt Q9Y2U5)"}, "CSF1R (human)": {"target": "CSF1R (human) (UniProt P07333)"}, "PKN1 (human)": {"target": "PKN1 (human) (UniProt Q16512)", "sequence (Q16512 whole entry, looked up)": "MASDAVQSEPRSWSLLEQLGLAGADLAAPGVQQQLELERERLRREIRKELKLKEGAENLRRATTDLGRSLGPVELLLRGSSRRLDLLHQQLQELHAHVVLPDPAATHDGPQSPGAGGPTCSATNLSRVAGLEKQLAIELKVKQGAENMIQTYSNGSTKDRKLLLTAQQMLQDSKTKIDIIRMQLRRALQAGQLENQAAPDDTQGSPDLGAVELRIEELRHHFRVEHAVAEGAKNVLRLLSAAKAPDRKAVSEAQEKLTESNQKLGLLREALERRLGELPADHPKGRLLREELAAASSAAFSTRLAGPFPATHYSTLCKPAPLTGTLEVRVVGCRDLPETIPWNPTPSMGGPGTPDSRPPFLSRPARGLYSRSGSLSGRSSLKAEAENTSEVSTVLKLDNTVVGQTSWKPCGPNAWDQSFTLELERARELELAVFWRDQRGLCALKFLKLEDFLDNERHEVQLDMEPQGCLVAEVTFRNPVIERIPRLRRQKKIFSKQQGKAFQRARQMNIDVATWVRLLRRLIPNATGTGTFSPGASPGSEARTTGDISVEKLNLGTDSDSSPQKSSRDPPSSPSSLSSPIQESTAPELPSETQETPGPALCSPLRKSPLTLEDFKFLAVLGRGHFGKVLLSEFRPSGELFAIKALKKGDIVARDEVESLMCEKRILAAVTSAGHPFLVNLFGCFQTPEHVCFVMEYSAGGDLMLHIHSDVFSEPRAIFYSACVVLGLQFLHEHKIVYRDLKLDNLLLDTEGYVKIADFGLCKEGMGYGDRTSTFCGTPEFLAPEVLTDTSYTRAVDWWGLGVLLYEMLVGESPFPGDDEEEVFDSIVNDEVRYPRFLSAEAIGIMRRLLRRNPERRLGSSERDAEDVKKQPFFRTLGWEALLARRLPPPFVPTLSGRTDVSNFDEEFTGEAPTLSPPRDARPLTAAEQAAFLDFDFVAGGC"}, "PDPK1 (human)": {"target": "PDPK1 (human) (UniProt O15530)"}, "MUSK (human)": {"target": "MUSK (human) (UniProt O15146)"}, "LIMK1 (human)": {"target": "LIMK1 (human) (UniProt P53667)", "sequence (P53667 whole entry, looked up)": "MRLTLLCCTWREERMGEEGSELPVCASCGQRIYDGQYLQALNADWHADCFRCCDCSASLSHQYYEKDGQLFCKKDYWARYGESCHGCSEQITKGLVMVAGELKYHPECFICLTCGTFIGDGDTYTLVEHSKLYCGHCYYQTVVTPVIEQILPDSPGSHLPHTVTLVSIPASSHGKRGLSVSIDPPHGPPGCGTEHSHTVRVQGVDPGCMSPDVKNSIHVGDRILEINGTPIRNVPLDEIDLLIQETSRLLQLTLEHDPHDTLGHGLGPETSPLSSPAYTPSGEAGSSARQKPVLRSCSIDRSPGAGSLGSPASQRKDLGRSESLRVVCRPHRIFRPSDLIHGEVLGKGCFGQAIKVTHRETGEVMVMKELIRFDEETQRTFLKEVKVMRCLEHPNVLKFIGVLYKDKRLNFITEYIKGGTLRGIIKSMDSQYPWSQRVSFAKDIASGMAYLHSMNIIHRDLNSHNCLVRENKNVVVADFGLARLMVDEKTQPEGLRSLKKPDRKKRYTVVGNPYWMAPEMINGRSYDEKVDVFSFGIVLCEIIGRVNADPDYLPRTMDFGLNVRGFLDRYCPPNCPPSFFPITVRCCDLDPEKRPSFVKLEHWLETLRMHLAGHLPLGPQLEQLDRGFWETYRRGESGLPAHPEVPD"}, "AKT2 (human)": {"target": "AKT2 (human) (UniProt P31751)"}, "GSK3B (human)": {"target": "GSK3B (human) (UniProt P49841)"}, "EPHA3 (human)": {"target": "EPHA3 (human) (UniProt P29320)"}, "GSG2 (human)": {"target": "GSG2 (human) (UniProt Q8TF76)"}, "HIPK3 (human)": {"target": "HIPK3 (human) (UniProt Q9H422)"}, "SIK2 (human)": {"target": "SIK2 (human) (UniProt Q9H0K1)"}, "CAMK1G (human)": {"target": "CAMK1G (human) (UniProt Q96NX5)", "sequence (Q96NX5 whole entry, looked up)": "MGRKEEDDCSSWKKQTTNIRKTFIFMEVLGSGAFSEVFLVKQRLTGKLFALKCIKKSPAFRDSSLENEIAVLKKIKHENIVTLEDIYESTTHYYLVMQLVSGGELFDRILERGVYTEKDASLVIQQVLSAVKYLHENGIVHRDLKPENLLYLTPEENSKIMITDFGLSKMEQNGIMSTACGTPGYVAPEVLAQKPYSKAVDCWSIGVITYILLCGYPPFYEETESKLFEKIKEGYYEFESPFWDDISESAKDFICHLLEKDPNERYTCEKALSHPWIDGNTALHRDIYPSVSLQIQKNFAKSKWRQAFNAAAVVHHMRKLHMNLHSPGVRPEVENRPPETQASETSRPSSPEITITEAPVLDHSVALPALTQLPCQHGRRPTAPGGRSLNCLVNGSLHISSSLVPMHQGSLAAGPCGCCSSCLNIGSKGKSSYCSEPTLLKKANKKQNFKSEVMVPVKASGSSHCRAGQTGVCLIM"}, "ADRBK1 (human)": {"target": "ADRBK1 (human) (UniProt P25098)"}, "YES1 (human)": {"target": "YES1 (human) (UniProt P07947)"}, "STK4 (human)": {"target": "STK4 (human) (UniProt Q13043)"}, "CDK5 CDK5R1 p25 (human)": {"target": "CDK5 CDK5R1 p25 (human) (UniProt Q00535+Q15078)", "sequence (Q00535 whole entry, looked up)": "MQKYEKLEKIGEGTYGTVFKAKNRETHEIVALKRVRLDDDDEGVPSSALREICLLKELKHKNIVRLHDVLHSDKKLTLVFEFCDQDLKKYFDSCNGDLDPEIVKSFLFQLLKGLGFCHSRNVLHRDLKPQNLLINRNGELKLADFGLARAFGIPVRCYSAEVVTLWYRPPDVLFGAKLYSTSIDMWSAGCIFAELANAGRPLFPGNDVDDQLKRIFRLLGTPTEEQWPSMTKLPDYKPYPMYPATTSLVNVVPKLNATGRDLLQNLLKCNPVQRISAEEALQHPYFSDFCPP", "sequence (Q15078 whole entry, looked up)": "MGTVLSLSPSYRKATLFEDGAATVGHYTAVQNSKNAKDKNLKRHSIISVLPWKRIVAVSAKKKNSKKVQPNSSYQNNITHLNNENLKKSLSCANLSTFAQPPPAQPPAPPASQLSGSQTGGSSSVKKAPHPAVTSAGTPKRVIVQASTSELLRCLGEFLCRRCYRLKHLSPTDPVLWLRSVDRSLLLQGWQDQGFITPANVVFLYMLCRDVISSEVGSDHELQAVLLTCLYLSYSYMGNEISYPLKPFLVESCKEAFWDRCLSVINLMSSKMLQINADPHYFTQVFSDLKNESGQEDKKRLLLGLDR"}, "FLT3 (human)": {"target": "FLT3 (human) (UniProt P36888)", "sequence (P36888 whole entry, looked up)": "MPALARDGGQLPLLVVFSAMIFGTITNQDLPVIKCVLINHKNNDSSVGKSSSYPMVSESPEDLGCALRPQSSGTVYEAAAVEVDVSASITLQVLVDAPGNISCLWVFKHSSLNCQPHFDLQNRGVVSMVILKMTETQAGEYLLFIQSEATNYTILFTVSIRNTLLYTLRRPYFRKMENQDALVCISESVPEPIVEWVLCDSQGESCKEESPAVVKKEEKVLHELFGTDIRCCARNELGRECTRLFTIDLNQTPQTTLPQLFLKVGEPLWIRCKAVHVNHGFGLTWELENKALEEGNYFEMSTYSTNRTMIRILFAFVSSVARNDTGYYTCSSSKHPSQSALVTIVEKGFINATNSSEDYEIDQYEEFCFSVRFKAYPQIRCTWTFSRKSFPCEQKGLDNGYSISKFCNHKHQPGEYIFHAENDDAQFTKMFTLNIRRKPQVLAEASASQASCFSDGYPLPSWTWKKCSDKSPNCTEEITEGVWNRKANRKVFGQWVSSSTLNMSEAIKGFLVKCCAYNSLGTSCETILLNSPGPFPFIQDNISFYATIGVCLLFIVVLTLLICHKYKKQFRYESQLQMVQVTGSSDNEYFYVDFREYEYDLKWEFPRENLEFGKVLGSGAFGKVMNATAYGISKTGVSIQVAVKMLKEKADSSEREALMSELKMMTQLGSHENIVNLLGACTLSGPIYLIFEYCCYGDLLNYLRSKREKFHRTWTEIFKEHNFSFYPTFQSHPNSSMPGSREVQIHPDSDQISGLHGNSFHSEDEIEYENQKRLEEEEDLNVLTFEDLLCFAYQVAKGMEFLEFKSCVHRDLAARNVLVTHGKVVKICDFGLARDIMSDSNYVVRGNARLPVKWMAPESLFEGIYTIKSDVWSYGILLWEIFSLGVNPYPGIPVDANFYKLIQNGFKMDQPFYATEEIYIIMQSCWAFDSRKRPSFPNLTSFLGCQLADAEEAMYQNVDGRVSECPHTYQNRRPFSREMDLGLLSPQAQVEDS"}, "PAK3 (human)": {"target": "PAK3 (human) (UniProt O75914)"}, "NEK9 (human)": {"target": "NEK9 (human) (UniProt Q8TD19)"}, "ULK3 (human)": {"target": "ULK3 (human) (UniProt Q6PHR2)"}, "MAP3K7 TAB1 (human)": {"target": "MAP3K7 TAB1 (human) (UniProt O43318+Q15750)"}},
  "data": [
    {"smiles": "CCC(=O)Nc1ccc2ncnc(Nc3cccc(Br)c3)c2c1", "values": [
      {"measurement": "residual activity", "setting": "STK25 (human)", "result": 102, "unit": "%"},
      {"measurement": "residual activity", "setting": "CAMKK2 (human)", "result": 84.3, "unit": "%"},
      {"measurement": "residual activity", "setting": "STK39 (human)", "result": 96.1, "unit": "%"},
      {"measurement": "residual activity", "setting": "MARK1 (human)", "result": 98.5, "unit": "%"},
      {"measurement": "residual activity", "setting": "FYN (human)", "result": 107, "unit": "%"},
      {"measurement": "residual activity", "setting": "ROCK1 (human)", "result": 99.5, "unit": "%"},
      {"measurement": "residual activity", "setting": "NEK7 (human)", "result": 92.7, "unit": "%"},
      {"measurement": "residual activity", "setting": "GSK3A (human)", "result": 98.2, "unit": "%"},
      {"measurement": "residual activity", "setting": "MAPKAPK5 (human)", "result": 105, "unit": "%"},
      {"measurement": "residual activity", "setting": "MAPK1 (human)", "result": 77.7, "unit": "%"},
      {"measurement": "residual activity", "setting": "MAPKAPK3 (human)", "result": 90.2, "unit": "%"},
      {"measurement": "residual activity", "setting": "EPHA5 (human)", "result": 101, "unit": "%"},
      {"measurement": "residual activity", "setting": "STK3 (human)", "result": 88, "unit": "%"},
      {"measurement": "residual activity", "setting": "PDGFRA (human)", "result": 107, "unit": "%"},
      {"measurement": "residual activity", "setting": "RPS6KA4 KD2 (human)", "result": 106, "unit": "%"},
      {"measurement": "residual activity", "setting": "EPHA7 (human)", "result": 102, "unit": "%"},
      {"measurement": "residual activity", "setting": "CAMKK1 (human)", "result": 99.8, "unit": "%"},
      {"measurement": "residual activity", "setting": "AURKA (human)", "result": 97.4, "unit": "%"},
      {"measurement": "residual activity", "setting": "MST1R (human)", "result": 97.2, "unit": "%"},
      {"measurement": "residual activity", "setting": "MAP3K2 (human)", "result": 76.1, "unit": "%"},
      {"measurement": "residual activity", "setting": "CSF1R (human)", "result": 98.9, "unit": "%"},
      {"measurement": "residual activity", "setting": "PKN1 (human)", "result": 101, "unit": "%"},
      {"measurement": "residual activity", "setting": "PDPK1 (human)", "result": 107, "unit": "%"},
      {"measurement": "residual activity", "setting": "MUSK (human)", "result": 87.8, "unit": "%"},
      {"measurement": "residual activity", "setting": "LIMK1 (human)", "result": 88.7, "unit": "%"},
      {"measurement": "residual activity", "setting": "AKT2 (human)", "result": 102, "unit": "%"},
      {"measurement": "residual activity", "setting": "GSK3B (human)", "result": 91.2, "unit": "%"},
      {"measurement": "residual activity", "setting": "EPHA3 (human)", "result": 106, "unit": "%"},
      {"measurement": "residual activity", "setting": "GSG2 (human)", "result": 95.2, "unit": "%"},
      {"measurement": "residual activity", "setting": "HIPK3 (human)", "result": 92.1, "unit": "%"},
      {"measurement": "residual activity", "setting": "SIK2 (human)", "result": 98.7, "unit": "%"},
      {"measurement": "residual activity", "setting": "CAMK1G (human)", "result": 92.1, "unit": "%"},
      {"measurement": "residual activity", "setting": "ADRBK1 (human)", "result": 112, "unit": "%"},
      {"measurement": "residual activity", "setting": "YES1 (human)", "result": 87, "unit": "%"},
      {"measurement": "residual activity", "setting": "STK4 (human)", "result": 97.1, "unit": "%"},
      {"measurement": "residual activity", "setting": "CDK5 CDK5R1 p25 (human)", "result": 78.4, "unit": "%"},
      {"measurement": "residual activity", "setting": "FLT3 (human)", "result": 94.1, "unit": "%"},
      {"measurement": "residual activity", "setting": "PAK3 (human)", "result": 105, "unit": "%"},
      {"measurement": "residual activity", "setting": "NEK9 (human)", "result": 105, "unit": "%"},
      {"measurement": "residual activity", "setting": "ULK3 (human)", "result": 97.5, "unit": "%"},
      {"measurement": "residual activity", "setting": "MAP3K7 TAB1 (human)", "result": 94, "unit": "%"}
    ]}
  ]
}
